Values quoted from earlier work as cited in patent publication US7739091B2, “Method for estimating protein-protein binding affinities” (The Research Foundation of State University of New York, priority 2006, dated 2010).

Details: side chain flanked by peptide bonds, water to n-octanol

transfer free energy	SMILES
0.92 kcal/mol	N[C@@H](Cc1c[nH]cn1)C(=O)O [His]
-0.8 kcal/mol	N[C@@H](Cc1ccc(O)cc1)C(=O)O [Tyr]
-1.81 kcal/mol	N[C@@H](Cc1ccccc1)C(=O)O [Phe]

Further lines, the compound ahead of its results:

SMILES	transfer free energy
C[C@@H](O)[C@H](N)C(=O)O [Thr]	0.95 kcal/mol
C[C@H](N)C(=O)O [Ala]	0.87 kcal/mol
N[C@@H](CO)C(=O)O [Ser]	0.85 kcal/mol
